{
  "source": "patent US5378725A",
  "about": "“Inhibition of phosphatidylinositol 3-kinase with wortmannin and analogs thereof” (The Arizona Board of Regents, priority 1993, dated 1995)",
  "key": {"[1]": {"biological_target": "T1, purified bovine brain PI 3-kinase (Bos taurus, UniProt P32871)", "T1 construct": "PI 3-kinase was prepared from bovine brain; from tissue; host or cells: bovine brain", "T1 sequence (P32871 whole entry)": "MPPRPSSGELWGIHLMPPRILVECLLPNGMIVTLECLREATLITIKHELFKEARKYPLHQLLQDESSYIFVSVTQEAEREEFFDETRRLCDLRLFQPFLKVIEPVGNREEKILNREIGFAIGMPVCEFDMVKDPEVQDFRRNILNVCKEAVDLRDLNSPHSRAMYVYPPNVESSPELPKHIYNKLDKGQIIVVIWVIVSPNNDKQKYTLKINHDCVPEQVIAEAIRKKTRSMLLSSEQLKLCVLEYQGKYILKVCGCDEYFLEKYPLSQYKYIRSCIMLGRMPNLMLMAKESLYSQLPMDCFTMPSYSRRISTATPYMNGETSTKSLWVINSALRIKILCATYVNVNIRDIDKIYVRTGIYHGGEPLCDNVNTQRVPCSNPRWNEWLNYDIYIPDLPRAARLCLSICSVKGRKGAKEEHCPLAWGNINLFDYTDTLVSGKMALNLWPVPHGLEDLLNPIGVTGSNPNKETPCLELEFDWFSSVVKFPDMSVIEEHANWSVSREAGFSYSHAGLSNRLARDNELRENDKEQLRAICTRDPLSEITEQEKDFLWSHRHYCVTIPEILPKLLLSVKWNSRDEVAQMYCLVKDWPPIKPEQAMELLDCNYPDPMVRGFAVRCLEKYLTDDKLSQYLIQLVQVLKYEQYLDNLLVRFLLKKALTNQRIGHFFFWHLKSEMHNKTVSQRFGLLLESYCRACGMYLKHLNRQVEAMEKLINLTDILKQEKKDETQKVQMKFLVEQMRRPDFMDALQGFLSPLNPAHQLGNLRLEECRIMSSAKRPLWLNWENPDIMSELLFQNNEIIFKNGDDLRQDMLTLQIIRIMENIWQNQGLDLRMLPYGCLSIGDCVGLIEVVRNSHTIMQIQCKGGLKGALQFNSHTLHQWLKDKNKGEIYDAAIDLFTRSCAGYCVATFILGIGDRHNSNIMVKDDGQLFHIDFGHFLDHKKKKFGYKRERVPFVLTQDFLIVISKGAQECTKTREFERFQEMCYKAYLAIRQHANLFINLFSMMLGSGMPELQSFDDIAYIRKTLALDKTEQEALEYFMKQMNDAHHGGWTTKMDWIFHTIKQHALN", "T1 sequence (P23727 whole entry partner)": "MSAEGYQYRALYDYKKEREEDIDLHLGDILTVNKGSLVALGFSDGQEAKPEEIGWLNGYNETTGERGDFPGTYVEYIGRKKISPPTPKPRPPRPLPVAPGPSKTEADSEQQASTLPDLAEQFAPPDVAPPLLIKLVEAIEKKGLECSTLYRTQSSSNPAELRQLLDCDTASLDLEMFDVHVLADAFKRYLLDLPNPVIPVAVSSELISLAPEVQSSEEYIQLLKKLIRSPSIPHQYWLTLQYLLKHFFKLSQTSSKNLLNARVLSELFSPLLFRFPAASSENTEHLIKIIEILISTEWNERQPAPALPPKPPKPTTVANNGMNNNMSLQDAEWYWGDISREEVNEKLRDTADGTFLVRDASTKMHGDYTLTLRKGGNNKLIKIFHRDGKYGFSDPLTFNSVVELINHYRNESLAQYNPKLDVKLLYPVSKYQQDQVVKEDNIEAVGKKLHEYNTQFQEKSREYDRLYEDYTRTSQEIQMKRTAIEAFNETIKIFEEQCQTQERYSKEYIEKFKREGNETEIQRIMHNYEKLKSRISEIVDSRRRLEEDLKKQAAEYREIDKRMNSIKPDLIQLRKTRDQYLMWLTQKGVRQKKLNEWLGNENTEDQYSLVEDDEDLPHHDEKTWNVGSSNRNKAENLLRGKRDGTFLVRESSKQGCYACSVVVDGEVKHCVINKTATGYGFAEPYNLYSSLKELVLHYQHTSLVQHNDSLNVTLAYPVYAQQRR", "assay": "Assay of purified PI 3-kinase activity (32P incorporation into phosphatidylinositol, TLC/scintillation)", "type": "biochemical", "settings": "bovine brain purified PI 3-kinase", "experimental": "In another, preferred, method, PI 3-kinase was prepared from bovine brain. Two bovine brains (wet weight about 900 g) were obtained from a local slaughterhouse within minutes of slaughter, packed on ice, and homogenized within one hour. Brains were trimmed of excess fat and blood vessels and then homogenized using a Tekmar Tissuemizer (Cincinnati, Ohio) at 4° C. in 20 mM of Tris(pH 8.3) containing 250 mM of sucrose, 6 mM of β-mercaptoethanol, 1 μg/ml of leupeptin, 1 μg/ml of pepstatin A, 0.4 mM of PMSF, and 1 mM of MgCl2.\nFollowing centrifugation for 60 minutes at 10,000×g, the DH of the supernatant (about 1200 mL) was lowered to 5.75 using dropwise addition of 1M acetic acid at 4° C. After stirring for an additional 15 minutes at 4° C., the solution was centrifuged for 60 minutes at 13,500×g. The supernatant was discarded. Pellets were resuspended in Buffer A (20 mM of Tris, pH 8.3, containing 6 mM of β-mercaptoethanol, 0.1 mM of ethylene glycol-bis(β-aminoethyl ether) N,N,N',N'-tetraacetic acid (EGTA), 1 μg/mL of leupeptin, 1 μg/mL of pepstatin A, and 1 mM of MgCl2), and loaded onto a Fast Flow Q Sepharose column (300 ml) at a flow rate of 5 mL/min at 4° C. After loading, the column was washed with 3 volumes of Buffer A containing 0.1M of KCl and the kinase was then eluted with a linear gradient of Buffer A/0.1M KCl to Buffer A/O.6M KCl at 3 mL/min over 7 volumes.\nFractions were assayed for PI 3-kinase activity using 10 μL of the fraction and phosphatidylinositol as substrate as described below. […] The PI 3-kinase pool was subjected to a 40% ammonium sulfate precipitation. Following centrifugation (60 minutes at 13,500×g), pellets were resuspended in Buffer B (10 mM of potassium phosphate, pH 7.4, containing 6 mM of β-mercaptoethanol, 1 μg/mL of leupeptin, 1 μg/mL of pepstatin A, and 1 mM of MgCl2), and loaded onto a 50 mL hydroxylapatite column (Calbiochem, Inc., La Jolla, Calif.) at 2.5 mL/minute. The column was washed with 150 mL Buffer B until the A280 baseline reached zero, and the kinase was then eluted with a linear gradient of 10-320 mM of KH2 PO4 at 1 mL/minute over 450 minutes.\nActive fractions were pooled and then loaded at 3 mL/minute onto a MonoS column (8 ml) (Pharmacia, Inc., Piscataway, N.J.) equilibrated in Buffer C (50 mM of MES, pH 6.2, containing 6 mM of β-mercaptoethanol, 0.1 mM of EGTA, 1 μg/mL of leupeptin, 1 μg/mL of pepstatin A, and 1 mM of MgCl2). PI 3-kinase was eluted with a linear gradient of 0-0.4M KCl in Buffer C over 120 minutes. […] Therefore, the MonoS flow-through was concentrated by tangential flow filtration on a Mini-Ultrasette Omega 50 K membrane (Filtron, Inc., Northborough, Mass.) and diluted in Buffer C to lower the conductivity. The material was then reloaded onto the MonoS column using the above conditions. […] Two pools of phosphatidylinositol kinase activity were obtained in the gradient; each was assayed for PI 3-kinase and PI 4-kinase activity.\nPool I from the MonoS column was diluted with Buffer A and chromatographed on MonoQ (1 ml) and ehted with a gradient of 0-0.4M KCl in Buffer A. The final pool was assayed for PI 3-kinase and PI 4-kinase activity.\nPI 3-kinase activity was measured as previously described by Matter, W. F., et al., Biochemical and Biophysical Research Communications, 186:624-631 (1992)."}, "protein kinase C [2]": {"test_system": "protein kinase C", "assay": "Effect on protein kinase C", "type": "biochemical"}, "[3]": {"biological_target": "c-src protein tyrosine kinase (Homo sapiens, UniProt P12931)", "sequence (P12931 whole entry)": "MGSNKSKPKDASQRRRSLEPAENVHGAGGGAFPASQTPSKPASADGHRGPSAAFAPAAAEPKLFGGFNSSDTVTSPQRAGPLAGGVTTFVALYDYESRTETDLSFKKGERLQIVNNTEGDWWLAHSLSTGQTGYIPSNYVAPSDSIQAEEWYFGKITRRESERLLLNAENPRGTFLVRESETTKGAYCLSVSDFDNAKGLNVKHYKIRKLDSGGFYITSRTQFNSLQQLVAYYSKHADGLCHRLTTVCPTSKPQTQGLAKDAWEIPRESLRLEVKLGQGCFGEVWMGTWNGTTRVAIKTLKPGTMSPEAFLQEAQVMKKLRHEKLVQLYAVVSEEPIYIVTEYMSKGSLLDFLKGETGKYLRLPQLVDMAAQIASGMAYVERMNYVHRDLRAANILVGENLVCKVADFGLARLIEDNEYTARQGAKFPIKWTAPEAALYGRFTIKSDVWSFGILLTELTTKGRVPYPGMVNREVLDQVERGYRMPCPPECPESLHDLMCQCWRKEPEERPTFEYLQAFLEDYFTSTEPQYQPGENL", "assay": "Effect on c-src protein tyrosine kinase", "type": "biochemical"}, "[4]": {"test_system": "PI 3-kinase in v-sis NIH 3T3 cells", "assay": "Assay of whole cell PI 3-kinase activity (PDGF-stimulated phosphatidylinositol-3-phosphate formation)", "type": "cell-based", "settings": "1.3 μM, 100 ng/mL PDGF, 10 min contact before stimulation", "experimental": "The cells were washed with phosphate-free DMEM and incubated in the same medium containing 0.1% fatty acid free bovine serum, albumin and 0.15 mCi/mL [^32 P]H3 PO4 (ICN Biomedicals, Irvine, Calif.) for 70 minutes. Inhibitor candidates were prepared using the above-stated procedure, and placed in contact with the cells for 10 minutes prior to their stimulation. The cells were stimulated with 100 ng/mL of PDGF for 10 minutes. To measure phosphatidylinositol-3-phosphates in the cells, the medium was removed and the cells washed once with phosphate buffered saline before adding 4 mL/flask of HCl:methanol (1:1 by volume). The cells were scraped from the flasks and total lipids were extracted by the method described by Folch, J., et al., J. Biol. Chem., 226:497-509 (1957). Deacylated lipids were prepared using methylamine via the method described by Clark, N. G., et al., BioChem J., 195: 301-306, (1981), and separated by HPLC using a 10 cm RAC II Partisil 5 SAX column (Whatman, Kent, U.K.) eluted with an NH4 H2 PO4 gradient at a flow of 0.8 mL/minute as described by Auger, K. R., et al., Methods in Inositide Research, pp. 159-166 [Irvine, R. F., Ed., Raven Press, Ltd., New York, N.Y. (1990)]. Detection of the eluting peaks was by a radioactive flow detector (Flo-One Beta, Model A515, Radiomatic Instruments, Meriden, Conn.). […]"}, "PI 4-kinase [5]": {"test_system": "PI 4-kinase", "assay": "Effect on PI 4-kinase", "type": "biochemical"}, "phospholipase C": {"test_system": "phospholipase C", "assay": "Effect on phospholipase C", "type": "biochemical"}, "PI 3-kinase": {"test_system": "PI 3-kinase", "settings": "Matter, et al.; cited from earlier work"}, "PI 4-kinase [6]": {"test_system": "PI 4-kinase", "settings": "Matter, et al.; cited from earlier work"}, "protein kinase C [7]": {"test_system": "protein kinase C", "settings": "Matter, et al.; cited from earlier work"}, "[8]": {"settings": "IC50 (ng/mL), 10 min preincubation, 20 μM ATP, 3% DMSO"}, "[9]": {"settings": "IC50, molar value in parentheses, value printed in parentheses beside ng/mL"}, "[10]": {"settings": "10 min preincubation, 20 μM ATP, 3% DMSO, read-out: IC50 (ng/mL) (converted)"}},
  "note": "Where two headings read alike, the source gives them in different places.",
  "data": [
    {"smiles": "COC[C@H]1OC(=O)c2coc3c2[C@@]1(C)C1=CC[C@]2(C)C(=O)CC[C@H]2[C@@H]1C3=O", "note": "[II, Δ9,11-dehydrodesacetoxywortmannin]", "values": [
      {"measurement": "IC50", "setting": "[1]; [8]", "value": 54, "unit": "nM"},
      {"measurement": "IC50", "setting": "[1]; [9]", "value": 59, "unit": "nM"}
    ]},
    {"smiles": "COC(=O)c1coc2c(O)c3c(c(C)c12)C=C[C@]1(C)C(=O)CC[C@@H]31", "note": "[IIIb, opened A-ring methyl ester of wortmannin]", "values": [
      {"measurement": "IC50", "setting": "[1]; [10]", "value": 4600, "unit": "nM"}
    ]},
    {"smiles": "COC[C@H]1OC(=O)c2coc3c2[C@@]1(C)C1=C(C3=O)[C@@H]2CCC(=O)[C@@]2(C)C[C@H]1OC(C)=O", "note": "[Ia, wortmannin]", "values": [
      {"measurement": "effect on protein kinase C", "setting": "protein kinase C [2]", "value": "no effect"},
      {"measurement": "IC50", "setting": "[1]; [8]", "value": 4.2, "unit": "nM"},
      {"measurement": "IC50", "setting": "[1]; [9]", "value": 4.2, "unit": "nM"},
      {"measurement": "effect on c-src protein tyrosine kinase", "setting": "[3]", "value": "no effect"},
      {"measurement": "inhibition of platelet derived growth factor stimulated phosphatidylinositol-3-phosphate formation in whole cells", "setting": "[4]", "value": "almost complete inhibition"},
      {"measurement": "effect on PI 4-kinase", "setting": "PI 4-kinase [5]", "value": "no effect"},
      {"measurement": "effect on phospholipase C", "setting": "phospholipase C", "value": "no effect"}
    ]},
    {"smiles": "COC[C@H]1OC(=O)c2coc3c2[C@@]1(C)C1=C(C3=O)[C@@H]2CCC(=O)[C@@]2(C)CC1", "note": "[Ib, 11-desacetoxywortmannin]", "values": [
      {"measurement": "IC50", "setting": "[1]; [10]", "value": 16.7, "unit": "nM"},
      {"measurement": "IC50", "setting": "[1]; value printed in parentheses beside ng/mL, read-out: IC50, molar value in parentheses", "value": 16.7, "unit": "nM"}
    ]},
    {"smiles": "O=c1c(O)c(-c2ccc(O)c(O)c2)oc2cc(O)cc(O)c12", "note": "[quercetin]", "values": [
      {"measurement": "inhibition of PI 3-kinase", "setting": "PI 3-kinase", "value": "inhibit"},
      {"measurement": "inhibition of PI 4-kinase", "setting": "PI 4-kinase [6]", "value": "inhibit"},
      {"measurement": "inhibition of protein kinase C", "setting": "protein kinase C [7]", "value": "inhibit"}
    ]}
  ]
}
